The values that follow come from patent US20250067726A1, “METHOD FOR ANALYZING PERSONALIZED ANTI-CANCER DRUGS IN CELL CULTURES” (PreComb Therapeutics AG, priority 2022, published 2025).

Data set [1] is described as follows: Pharmacokinetic parameters (t1/2, Cmax, tmax) identified for the drug panel. The following applies: human, in vivo; Table 1, twice the half-life, main determinant for in vitro incubation time. From the text:
The elimination half-life or drug half-life tin generally refers to the time required for half the dose of drug administered to be removed from the body. For those drugs to be tested, where a suitable tin can not be taken from the literature, and/or for the purpose of grouping or forming panels of drugs, tin values may be determined as follows.
In accordance with the existing guidelines, the rate (Cmax, tmax) and extent (AUC) of absorption of drug from a test formulation (vs. reference formulation) is evaluated using a single dose study in healthy volunteer subjects, followed by measuring the blood/plasma concentration of the parent drug and any major active metabolites (if present) for a time period of ≥3 t½.
For a determination of the parameters, blood samples are taken at 0, 1, 2, 3, 4, 5, 6, 7, and 8 hours, optionally followed by 10 and 12, 18, 24, 30, 36, and 42 hours after administration. As a general rule, the more frequently samples around the expected time of the maximum concentration are taken, the more accurate the value of t½ (and tmax and Cmax) are. The above determinations can be made in several individuals, and median values can be determined as parameter e.g. for grouping (see below), and testing.
Grouping or pre-selection of drugs can be achieved based on one or more of the following parameters that are known to the person of skill: • i) Cmax—the value defining the maximal concentration used, • ii) t½, —time until 1/2 of the drug is cleared by the patient/cells (half-life), • iii) Duration of action [h] (length of time that particular drug is effective), • iv) Elimination time [h] (time it takes for the concentration of the drug in the plasma or the total amount in the body to be removed), • v) Area under the curve (AUC) [ng*h/ml], • vi) Clearance (CL) [L/h]

The conditions of data set [2]: cited from earlier work; for Cmax Human: Table 2, human.
Data set [3] concerns Panc-1 cancer cells and NIH3T3 fibroblasts microtumor. The experiment in a line: Redosing example: pancreatic cancer microtumor model, drug response. The following applies: dosed once for 7 h or re-dosed for another 7 h with 48 h recovery in between; four independent experiments. The data set is classed as cell-based. As for the experimental part:
A pancreatic cancer microtumor model consisting of Panc-1 cancer cells and NIH3T3 fibroblasts were treated with either Gemcitabine or 5-Flurouracil. Both drugs were dosed either once for 7 hours or re-dosed for another 7 h with a 48 h recovery time in between (four independent experiments).
A pancreatic cancer microtumor model consisting of Panc-1 cancer cells and NIH3T3 fibroblasts were treated with either Gemcitabine (GEM) and/or 5-Flurouracil (5-FU). Both drugs were dosed either once for 7 hours or re-dosed for another 7 h with a 48 h recovery time in between (four independent experiments).

Like-named read-outs stand apart in the source and are kept apart here.

In data set [1], `CC(=O)O[C@@]12CO[C@@H]1C[C@H](O)[C@@]1(C)C(=O)[C@H](O)C3=C(C)[C@@H](OC(=O)[C@H](O)[C@@H](NC(=O)OC(C)(C)C)c4ccccc4)C[C@@](O)([C@@H](OC(=O)c4ccccc4)[C@H]21)C3(C)C` [Docetaxel] gave a twice the half-life (2 × t1/2) of 82 h. Moreover, the t1/2 in data set [2] (Table 1, elimination half-life) is given as 41 h; in data set [2] (Table 2) it was 41 h. Also, the “Cmax Human” value in data set [2] is 1500 to 2500 ng/mL.
In turn, `C#Cc1cccc(Nc2ncnc3cc(OCCOC)c(OCCOC)cc23)c1` [Erlotinib] came in with a twice the half-life (2 × t1/2) in data set [1] of 48.8 h. Moreover, the “Cmax Human” value in data set [2] was 2300 ng/mL. Moreover, the tmax in data set [2] (Table 2) is recorded as 5.5 h.
In the case of `O=c1[nH]cc(F)c(=O)[nH]1` [Fluorouracil], the twice the half-life (2 × t1/2) in data set [1] amounted to 0.6 h. The “Efficiency on redosing versus single dosing” value in data set [3] is reported as “did not improve”. The t1/2 in data set [2] (Table 1, elimination half-life) is 0.3 h.
Compound `Nc1ccn([C@@H]2O[C@H](CO)[C@@H](O)C2(F)F)c(=O)n1` [Gemcitabine] registered a twice the half-life (2 × t1/2) in data set [1] of 0.46 h. Also, the “Efficiency on redosing versus single dosing” value in data set [3] is “increased efficiency”. Also, the t1/2 in data set [2] (Table 1, elimination half-life) is given as 0.23 h; in data set [2] (Table 2), 0.23 h. Also, the “Cmax Human” value in data set [2] was 18500 ng/mL.
With `O=C(c1cc(Cc2n[nH]c(=O)c3ccccc23)ccc1F)N1CCN(C(=O)C2CC2)CC1` [Olaparib], the twice the half-life (2 × t1/2) in data set [1] turned out to be 23.8 h. Further, the t1/2 in data set [2] (Table 1, elimination half-life) is 11.9 h. Also, in data set [2], the “Cmax Human” value was 5800 ng/mL. Moreover, in data set [2] (Table 2), the t1/2 is 11.9 h and the tmax was 1.3 h.
As for `O=C1[O][Pt]2([NH][C@@H]3CCCC[C@H]3[NH]2)[O]C1=O` [Oxaliplatin], the “Cmax Human” value in data set [2] is 1200 ng/mL. Further, the t1/2 in data set [2] (Table 2) was 1.86 h.
In the case of `Nc1nc2[nH]cc(CCc3ccc(C(=O)N[C@@H](CCC(=O)O)C(=O)O)cc3)c2c(=O)[nH]1` [Pemetrexed], in data set [1], the twice the half-life (2 × t1/2) stood at 8.8 h. Also, the t1/2 in data set [2] (Table 1, elimination half-life) was 4.4 h; in data set [2] (Table 2), 4.4 h. Further, the “Cmax Human” value in data set [2] was 90000 to 150000 ng/mL.
`CC(=O)Nc1cccc(-n2c(=O)n(C3CC3)c(=O)c3c(Nc4ccc(I)cc4F)n(C)c(=O)c(C)c32)c1` [Trametinib] came in with a twice the half-life (2 × t1/2) in data set [1] of 9.6 h. Besides, the t1/2 in data set [2] (Table 1, elimination half-life) is 4.8 h; in data set [2] (Table 2), 4.35 h. Further, the “Cmax Human” value in data set [2] is 22 ng/mL.
